Laboratory results from patent US11370774B2, “Substituted benzofuran, benzopyrrole, benzothiophene, and structurally related complement inhibitors” (BioCryst Pharmaceuticals, Inc., priority 2018, dated 2022).

Target: Factor D (Homo sapiens (Human), UniProt P00746)
Experiment: Factor D esterolytic assay (Z-Lys-SBzl substrate, DTNB, 405 nm)
Type: biochemical
Conditions: Z-Lys-SBzl 1.29 mM, pH 7.5, 10% DMSO, tested a minimum of three times, read-out: Measured Ki (IC50) Value for Compounds: IC50
Summary of the method: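 Human Factor D ([…]) with 1.29 mM Z-Lys-SBzl in 100 mM HEPES, 500 mM NaCl, pH 7.5, 10% DMSO; substrate added immediately or after room-temperature preincubation. Released thiol reacted with DTNB, rate followed at 405 nm for 600 sec, 690 nm background subtracted. IC50 from percent inhibition versus uninhibited rate, n≥3.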

Chain of Factor D (P00746 26-253): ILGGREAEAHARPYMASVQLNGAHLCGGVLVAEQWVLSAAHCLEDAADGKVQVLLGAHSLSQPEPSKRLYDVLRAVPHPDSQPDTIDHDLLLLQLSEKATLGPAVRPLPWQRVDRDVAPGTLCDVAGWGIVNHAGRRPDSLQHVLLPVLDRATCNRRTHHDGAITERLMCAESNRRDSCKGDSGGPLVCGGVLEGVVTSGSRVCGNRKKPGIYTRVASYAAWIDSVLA

Structure (SMILES) | IC50
NCc1cccc(-c2nc(C(=O)Nc3ccoc3CC(=O)O)c3cccn3n2)c1F [Compound 143g, 2-(3-(2-(3-(aminomethyl)-2-fluorophenyl)pyrrolo[2,1-f][1,2,4]triazine-4-carboxamido)furan-2-yl)acetic acid] | > 10000 nM
Cc1ccc(S(=O)(=O)n2ccc3cc(COc4ccccc4CC(=O)O)cc(-c4cccc(CN)c4)c32)cc1 [Compound 146g, 2-(2-((7-(3-(aminomethyl)phenyl)-1-tosyl-1H-indol-5-yl)methoxy)phenyl)acetic acid] | 1000 to 10000 nM
NCc1cccc(-c2cc(COc3ccccc3CC(=O)O)cc3c2ccn3CC2CC2)c1 [Compound 148e, 2-(2-((4-(3-(aminomethyl)phenyl)-1-(cyclopropylmethyl)-1H-indol-6-yl)methoxy)phenyl)acetic acid] | < 1000 nM
NCc1cccc(-c2cc(COc3ccccc3CC(=O)O)cc3c2ccn3CC2CC2)c1F [Compound 149b, 2-(2-((4-(3-(aminomethyl)-2-fluorophenyl)-1-(cyclopropylmethyl)-1H-indol-6-yl)methoxy)phenyl)acetic acid] | < 1000 nM
Cn1ccc2c(-c3ccnc(CN)c3F)cc(COc3ccccc3CC(=O)O)cc21 [Compound 150b, 2-(2-((4-(2-(aminomethyl)-3-fluoropyridin-4-yl)-1-methyl-1H-indol-6-yl)methoxy)phenyl)acetic acid] | < 1000 nM
Cn1ncc2c(-c3ccnc(CN)c3F)cc(COc3ccccc3CC(=O)O)cc21 [Compound 151c, 2-(2-((4-(2-(aminomethyl)-3-fluoropyridin-4-yl)-1-methyl-1H-indazol-6-yl)methoxy)phenyl)acetic acid] | < 1000 nM
NCc1cccc(-c2cc(CNc3ccccc3CC(=O)O)cc3ccoc23)c1F [Compound 152d, lithium 2-(2-(((7-(3-(aminomethyl)-2-fluorophenyl)benzofuran-5-yl)methyl)amino)phenyl)acetate] | < 1000 nM
NCc1cccc(-c2cc(CNc3ccccc3CC(=O)O)cc3ccoc23)c1 [Compound 153b, lithium 2-(2-(((7-(3-(aminomethyl)phenyl)benzofuran-5-yl)methyl)amino)phenyl)acetate] | < 1000 nM
NCc1cccc(-c2cc(COc3ccccc3CC(=O)O)cc3c(C(F)(F)F)coc23)c1 [Compound 154g, 2-(2-((7-(3-(aminomethyl)phenyl)-3-(trifluoromethyl)benzofuran-5-yl)methoxy)phenyl)acetic acid] | < 1000 nM
NCc1cc(-c2cc(COc3ccccc3CC(=O)O)cc3c2ccn3CC2CC2)ccn1 [Compound 155c, 2-(2-((4-(2-(aminomethyl)pyridin-4-yl)-1-(cyclopropylmethyl)-1H-indol-6-yl)methoxy)phenyl)acetic acid] | < 1000 nM
NCc1cccc(-c2cc(COc3ccccc3CC(=O)O)cc3[nH]ncc23)c1 [Compound 156b, 2-(2-((4-(3-(aminomethyl)phenyl)-1H-indazol-6-yl)methoxy)phenyl)acetic acid] | < 1000 nM
NCc1cccc(-c2nc(C(=O)Nc3cccnc3CC(=O)O)c3cccn3n2)c1 [Compound 157d, 2-(3-(2-(3-(aminomethyl)phenyl)pyrrolo[2,1-f][1,2,4]triazine-4-carboxamido)pyridin-2-yl)acetic acid] | > 10000 nM
NCc1cccc(-c2cc(C(=O)Nc3ccccc3CC(=O)O)cc3cc[nH]c23)c1 [Compound 158c, 2-(2-(7-(3-(aminomethyl)phenyl)-1H-indole-5-carboxamido)phenyl)acetic acid] | 1000 to 10000 nM
NCc1cccc(-c2cc(COc3ccccc3CC(=O)O)cc3nncn23)c1 [Compound 159f, 2-(2-((5-(3-(aminomethyl)phenyl)-[1,2,4]triazolo[4,3-a]pyridin-7-yl)methoxy)phenyl)acetic acid] | 1000 to 10000 nM

Now from value to compound:

IC50 | Structure (SMILES)
< 1000 nM | Cn1ccc2c(-c3ccnc(CN)c3)cc(COc3ccccc3CC(=O)O)cc21 [Compound 133c, 2-(2-((4-(2-(aminomethyl)pyridin-4-yl)-1-methyl-1H-indol-6-yl)methoxy)phenyl)acetic acid]
< 1000 nM | NCc1cccc(-c2cc(COc3ccccc3CC(=O)O)nc3ccoc23)c1F [Compound 134b, 2-(2-((7-(3-(aminomethyl)-2-fluorophenyl)furo[3,2-b]pyridin-5-yl)methoxy)phenyl)acetic acid]
< 1000 nM | Cn1ncc2c(-c3ccnc(CN)c3)cc(COc3ccccc3CC(=O)O)cc21 [Compound 135c, 2-(2-((4-(2-(aminomethyl)pyridin-4-yl)-1-methyl-1H-indazol-6-yl)methoxy)phenyl)acetic acid]
< 1000 nM | NCc1cccc(-c2cc(COc3ccccc3CC(=O)O)c(F)c3ccoc23)c1 [Compound 136e, 2-(2-((7-(3-(aminomethyl)phenyl)-4-fluorobenzofuran-5-yl)methoxy)phenyl)acetic acid]
< 1000 nM | NCc1cccc(-c2cc(COc3ccccc3CC(=O)O)c(F)c3ccoc23)c1F [Compound 137b, 2-(2-((7-(3-(aminomethyl)-2-fluorophenyl)-4-fluorobenzofuran-5-yl)methoxy)phenyl)acetic acid]
< 1000 nM | CNCc1cc2cc(COc3ccccc3CC(=O)O)cc(-c3cccc(CN)c3)c2o1 [Compound 138f, 2-(2-((7-(3-(aminomethyl)phenyl)-2-((methylamino)methyl)benzofuran-5-yl)methoxy)phenyl)acetic acid]
< 1000 nM | NCc1cccc(-c2cc(COc3ccccc3CC(=O)O)cc3cc(CN4CCOCC4)oc23)c1 [Compound 139c, 2-(2-((7-(3-(aminomethyl)phenyl)-2-(morpholinomethyl)benzofuran-5-yl)methoxy)phenyl)acetic acid]
< 1000 nM | NCc1cccc(-c2cc(COc3ccccc3CC(=O)O)cc3cc(Cn4ccnc4)oc23)c1 [Compound 140c, 2-(2-((2-((1H-imidazol-1-yl)methyl)-7-(3-(aminomethyl)phenyl)benzofuran-5-yl)methoxy)phenyl)acetic acid]
< 1000 nM | CN(C)Cc1cc2cc(COc3ccccc3CC(=O)O)cc(-c3cccc(CN)c3)c2o1 [Compound 141c, 2-(2-((7-(3-(aminomethyl)phenyl)-2-((dimethylamino)methyl)benzofuran-5-yl)methoxy)phenyl)acetic acid]
< 1000 nM | NCc1cccc(-c2nc(C(=O)Nc3cscc3CC(=O)O)c3cccn3n2)c1F [Compound 142d, 2-(4-(2-(3-(aminomethyl)-2-fluorophenyl)pyrrolo[2,1-f][1,2,4]triazine-4-carboxamido)thiophen-3-yl)acetic acid]
< 1000 nM | NCc1cccc(-c2nc(C(=O)Nc3ccsc3CC(=O)O)c3cccn3n2)c1F [Compound 144d, 2-(3-(2-(3-(aminomethyl)-2-fluorophenyl)pyrrolo[2,1-f][1,2,4]triazine-4-carboxamido)thiophen-2-yl)acetic acid]
< 1000 nM | NCc1cccc(-c2nc(C(=O)Nc3cscc3CC(=O)O)cc3ccoc23)c1 [Compound 145c, 2-(4-(7-(3-(aminomethyl)phenyl)furo[2,3-c]pyridine-5-carboxamido)thiophen-3-yl)acetic acid]
< 1000 nM | NCc1cccc(-c2nc(C(=O)Nc3ccsc3CC(=O)O)cc3ccoc23)c1 [Compound 147c, 2-(3-(7-(3-(aminomethyl)phenyl)furo[2,3-c]pyridine-5-carboxamido)thiophen-2-yl)acetic acid]
